Patent publication US20080187984A1, “Myo-inositol oxygenases” (Cargill, Incorporated, priority 2001, published 2008)

How the values were obtained:
[1] = biological target: T1, ycbD product (aldehyde dehydrogenase) (Bacillus subtilis, UniProt P42236); test: Dehydrogenase activity of cell extracts, absorbance at 340 nm; format: biochemical; conditions: 200 mM substrate, 0.05 mL cell extract (0.25 mg protein); for Relative Activity NAD: 1 mM NAD; for Relative Activity NADP: 1 mM NADP
T1 construct: made in house; host or cells: E. coli BLR(DE3), [ycbD+ycbE]-pET30a, desalted cell extract
Description: The dehydrogenase activity of the cell extracts was followed using acetaldehyde, glucuronic acid, and glucurono-3,6-lactone as substrates in 96-well plates. Each assay mixture contained 100 mM potassium phosphate, pH 7.8, 1 mM NADP or NAD, 200 mM substrate, and between 0.02 and 0.1 mL cell extract (0.1 to 0.5 mg protein). The reactions were started by adding the enzyme and were incubated at 30° C. in the spectrophotometer. The dehydrogenase activity was followed by monitoring the linear change in absorbance at 340 nm over a 10 minute time period (referenced to a reaction mixture without substrate).

beta-glucuronidase = conditions: cited from earlier work
serum cholesterol = conditions: mammals; cited from earlier work
[2] = biological target: T2, myo-inositol oxygenase (MIO) (Homo sapiens, UniProt Q9UGB7); test: MIO-orcinol assay of recombinant human MIO; format: biochemical
T2 construct: made in house; host or cells: Hi5 / Sf-9 insect cells (baculovirus, pFastBacHTa); also E. coli DH10B (pTRC99A) and S. cerevisiae INVSc1 (pYES2)
T2 sequence (Q9UGB7 with tags, fused parts or gaps): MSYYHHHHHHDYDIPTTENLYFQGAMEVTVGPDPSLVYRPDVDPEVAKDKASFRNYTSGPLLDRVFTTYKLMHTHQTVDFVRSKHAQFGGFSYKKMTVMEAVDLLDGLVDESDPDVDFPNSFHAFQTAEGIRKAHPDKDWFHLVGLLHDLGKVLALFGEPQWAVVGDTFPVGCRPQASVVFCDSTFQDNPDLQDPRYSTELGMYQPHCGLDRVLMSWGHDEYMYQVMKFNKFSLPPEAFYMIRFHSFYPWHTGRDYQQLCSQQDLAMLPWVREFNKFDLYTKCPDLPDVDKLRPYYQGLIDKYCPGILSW
Description: MIO activity was determined using a modification of the method described by Reddy et al. (J. Biol. Chem., 256, 8510 (1981)). Briefly, this assay is based on the reaction of orcinol (5-methyl-1,3-benzenediol) with the MIO enzyme reaction product, D-glucuronic acid. The standard assay mixture contained 50 mM Tris-HCl (pH 8.0), 2.0 mM cysteine, 1.0 mM ferrous ammonium sulfate, 60 mM myo-inositol, and appropriate quantities of enzyme in a total volume of 0.50 mL. The stock L-cysteine solution (0.10 M) was prepared every two weeks, and the stock ferrous ammonium sulfate solution (0.50 M) was prepared fresh daily. The enzyme solutions consisted of cell extracts prepared as described or chromatography fractions generated during the partial purification of the enzyme. Prior to initiating the reaction by addition of the substrate myo-inositol (stock solution of 0.50 M, dissolved in 50 mM TEGG), all other reagents were mixed together by vortexing and incubated for 5 minutes at 30° C. The substrate was then added to initiate the assay. After vortex-mixing the components, the reaction was carried out in an air atmosphere at 30° C. with shaking at 200 rpm for 10 minutes. The reaction was terminated by the addition of 75 μL of 20% trichloroacetic acid. After vortexing, the assay mixture was transferred to a 1.5 mL polypropylene microcentrifuge tube, and the precipitated polypeptide was separated by centrifugation at 21,000×g for 3 minutes at 25° C. The supernatant was transferred to a new 1.5 mL polypropylene microcentrifuge tube, and the D-glucuronic acid concentration was determined by the orcinol colorimetric assay.
The orcinol colorimetric determination assay was performed as follows. Freshly prepared orcinol reagent (0.6 mL; 0.4% (w/v) orcinol, 0.09% (w/v) ferric trichloride hexahydrate in concentrated HCl) was added to 0.3 mL of the clear supernatant. The mixture was vortex-mixed and then incubated in a boiling water bath for 30 minutes. After cooling to 25° C., the mixture was cleared by centrifugation at 21,000×g for 3 minutes. The supernatant was transferred to a disposable cuvette, and the absorbance was measured at 660 nm. A standard curve was generated by replacing the enzyme fraction with D-glucuronic acid (0 to 40 μg/mL) and carrying out the assay as described above. […]
All reactions were run in duplicate, and all polypeptide fractions were assayed with and without added myo-inositol substrate (an equal volume of TEGG buffer with or without substrate was added to initiate the assay). The average of the absorbance readings of the assay mixtures carried out without substrate was subtracted from the average of readings of the assay mixtures containing substrate. […]

glucuronate reductase = biological target: T3, glucuronate reductase (Rattus norvegicus, UniProt P51635, T2A); test: GLR assay, loss of absorbance at 340 nm (loss of NADPH); format: biochemical
T3 construct: His tag (pET30a fusion); made in house; host or cells: E. coli BLR(DE3), pET30a
T3 sequence (P51635 1-325 T2A): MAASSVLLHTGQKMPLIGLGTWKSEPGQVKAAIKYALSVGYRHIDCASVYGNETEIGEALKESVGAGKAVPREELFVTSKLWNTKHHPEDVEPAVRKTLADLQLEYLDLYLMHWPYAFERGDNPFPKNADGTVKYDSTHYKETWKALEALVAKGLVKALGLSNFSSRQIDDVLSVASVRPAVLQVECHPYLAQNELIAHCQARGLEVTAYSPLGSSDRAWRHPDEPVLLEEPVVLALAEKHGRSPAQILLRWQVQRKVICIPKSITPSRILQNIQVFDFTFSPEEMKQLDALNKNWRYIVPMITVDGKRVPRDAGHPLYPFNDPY
Description: GLR was assayed by following the loss of absorbance at 340 nm (loss of NADPH) using 0.3 mM NADPH, 10 mM glucuronic acid, and variable amount of enzyme in 100 mM sodium phosphate, pH 6.6 (Hayashi et al., J. Biochem., 95:2223-2232 (1984)). 1-2 micromoles of NADPH were typically consumed per minute per mg protein.

T1 sequence (P42236 whole entry): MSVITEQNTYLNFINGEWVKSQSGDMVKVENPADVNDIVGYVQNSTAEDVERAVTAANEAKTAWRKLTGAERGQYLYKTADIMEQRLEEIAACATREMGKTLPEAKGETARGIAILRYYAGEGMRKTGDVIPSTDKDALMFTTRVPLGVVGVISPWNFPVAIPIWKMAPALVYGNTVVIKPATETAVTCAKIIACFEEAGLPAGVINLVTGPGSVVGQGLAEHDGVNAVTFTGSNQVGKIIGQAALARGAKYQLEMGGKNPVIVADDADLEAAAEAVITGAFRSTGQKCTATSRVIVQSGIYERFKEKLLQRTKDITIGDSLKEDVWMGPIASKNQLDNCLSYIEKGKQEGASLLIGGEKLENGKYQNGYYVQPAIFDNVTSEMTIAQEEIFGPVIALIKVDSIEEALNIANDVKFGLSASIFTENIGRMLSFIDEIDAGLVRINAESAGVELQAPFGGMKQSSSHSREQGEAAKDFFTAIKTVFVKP

Molecule: O=C[C@H](O)[C@@H](O)[C@H](O)[C@H](O)C(=O)O [D-glucuronate]
- Relative Activity NAD [1]: 2.4 percentage of maximum activity
- Relative Activity NADP [1]: 2.1 percentage of maximum activity

Molecule: O=C[C@H](O)[C@H]1OC(=O)[C@@H](O)[C@H]1O [D-glucurono-3,6-lactone]
- Relative Activity NAD [1]: 2.1 percentage of maximum activity
- Relative Activity NADP [1]: 50.6 percentage of maximum activity

Molecule: O=C(O)[C@@H](O)[C@@H](O)[C@H](O)[C@@H](O)C(=O)O [Glucaric acid]
- inhibition of beta-glucuronidase (beta-glucuronidase): potent inhibitor
- effect on serum cholesterol (serum cholesterol): lower serum cholesterol

Molecule: CC=O [acetaldehyde]
- Relative Activity NAD [1]: 56.9 percentage of maximum activity
- Relative Activity NADP [1]: 100.0 percentage of maximum activity

B1: human MIO polypeptide: Human myo-inositol oxygenase (ORF EMBL: CAB63064.1) expressed in E. coli or S. cerevisiae, assayed in cell extracts (protein, UniProt Q9UGB7 1-285, looked up)
Inositol oxygenase: MKVTVGPDPSLVYRPDVDPEVAKDKASFRNYTSGPLLDRVFTTYKLMHTHQTVDFVRSKHAQFGGFSYKKMTVMEAVDLLDGLVDESDPDVDFPNSFHAFQTAEGIRKAHPDKDWFHLVGLLHDLGKVLALFGEPQWAVVGDTFPVGCRPQASVVFCDSTFQDNPDLQDPRYSTELGMYQPHCGLDRVLMSWGHDEYMYQVMKFNKFSLPPEAFYMIRFHSFYPWHTGRDYQQLCSQQDLAMLPWVREFNKFDLYTKCPDLPDVDKLRPYYQGLIDKYCPGILSW
- specific activity ([2]; E. coli, pTRC99A, IPTG induced, desalted cell extract): 8.8 μg glucuronic acid formed per mg polypeptide in 10 minutes
- specific activity ([2]; S. cerevisiae INVSc1, pYES2, cell extract, 12 hours after induction): 13.4 μg glucuronic acid formed per mg polypeptide in 10 minutes

B2: purified polypeptide: His-tagged human MIO polypeptide, SEQ ID NO:12, expressed by baculovirus in insect cells (protein)
chain: T2 sequence (Q9UGB7 with tags, fused parts or gaps)
modifications: His tag; human polypeptide with non-human sequences
- MIO activity ([2]; Hi5 insect cells, baculovirus expression, FIG. 8): exhibited MIO activity
- specific activity ([2]; Nickel-NTA purified to homogeneity, from insect cells): 225 μg glucuronic acid formed per mg polypeptide during a 10 minute assay

B3: GLR: glucuronate reductase, rat glr expressed from pET30a in E. coli, His-Bind purified (protein, UniProt P51635 2-325, looked up)
Aldo-keto reductase family 1 …: TASSVLLHTGQKMPLIGLGTWKSEPGQVKAAIKYALSVGYRHIDCASVYGNETEIGEALKESVGAGKAVPREELFVTSKLWNTKHHPEDVEPAVRKTLADLQLEYLDLYLMHWPYAFERGDNPFPKNADGTVKYDSTHYKETWKALEALVAKGLVKALGLSNFSSRQIDDVLSVASVRPAVLQVECHPYLAQNELIAHCQARGLEVTAYSPLGSSDRAWRHPDEPVLLEEPVVLALAEKHGRSPAQILLRWQVQRKVICIPKSITPSRILQNIQVFDFTFSPEEMKQLDALNKNWRYIVPMITVDGKRVPRDAGHPLYPFNDPY
modifications: His tag
- NADPH consumed (glucuronate reductase; 0.3 mM NADPH, 10 mM glucuronic acid, pH 6.6): 1-2 micromoles per minute per mg p
- Specific Activity (purified protein) (glucuronate reductase; His-Bind purified from E. coli): 1 to 3 µmol/min/mg
